# Source: US20100298141A1, “SUBSTITUTED PYRIDINE N-OXIDE HERBICIDES” (E. I. DU PONT DE NEMOURS AND COMPANY, priority 2007, published 2010)
# Key:
# wild oat = experiment: Test C pre-/postemergence test; format: in vivo, Avena fatua; conditions: for Plant response rating, Oat, Wild: 31 g ai/ha, scale 0 to 100 (0 no effect, 100 complete control)
# How it was run: (§1)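 Test chemicals were formulated with surfactant in a non-phytotoxic solvent and sprayed both on freshly planted seeds (preemergence) and on 1- to 4-leaf plants of 2–18 cm (postemergence). Flooded-paddy pots received compound directly into 3 cm of standing water, maintained for the test.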
# redroot pigweed = experiment: Test A pre-/postemergence greenhouse test; format: in vivo, Amaranthus retroflexus; conditions: for Pigweed plant response rating: 0 to 100 scale; for Plant response rating, Pigweed: 0 to 100 scale where 0 is no effect and 100 is complete control
# How it was run: (§2)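 Pre: directed soil spray on seeded loam/sand. Post: foliar spray, plants 2–10 cm, 1–2 leaf stage, applied concurrently. Vehicle: non-phytotoxic solvent + surfactant. Greenhouse ~10 d; visual injury rating vs untreated controls.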
# wheat [1] = experiment: Test C pre-/postemergence test; format: in vivo, Triticum aestivum; conditions: for Plant response rating, Wheat: 31 g ai/ha, scale 0 to 100 (0 no effect, 100 complete control)
# How it was run: as §1
# downy brome = experiment: Test C pre-/postemergence test; format: in vivo, Bromus tectorum; conditions: for Plant response rating, Bromegrass, Downy: 31 g ai/ha, scale 0 to 100 (0 no effect, 100 complete control)
# How it was run: as §1
# catchweed bedstraw = experiment: Test C pre-/postemergence test; format: in vivo, Galium aparine; conditions: for Plant response rating, Galium: 31 g ai/ha, scale 0 to 100 (0 no effect, 100 complete control)
# How it was run: as §1
# yellow nutsedge = experiment: Test C pre-/postemergence test; format: in vivo, Cyperus esculentus; conditions: for Plant response rating, Nutsedge, Yellow: 31 g ai/ha, scale 0 to 100 (0 no effect, 100 complete control)
# How it was run: as §1
# eastern black nightshade = experiment: Test C pre-/postemergence test; format: in vivo, Solanum ptycanthum; conditions: for Plant response rating, Nightshade: 31 g ai/ha, scale 0 to 100 (0 no effect, 100 complete control)
# How it was run: as §1
# velvetleaf [2] = experiment: Test C pre-/postemergence test; format: in vivo, Abutilon theophrasti; conditions: for Plant response rating, Velvetleaf: 31 g ai/ha, scale 0 to 100 (0 no effect, 100 complete control)
# How it was run: as §1
# duck salad = experiment: Test C flooded paddy test; format: in vivo, Heteranthera limosa; conditions: Flood
# How it was run: (§3)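 Compound was added to standing water 3 cm above soil, flood maintained, and plants held in a greenhouse before visual scoring against controls at 13 to 15 days.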
# corn = experiment: Test C pre-/postemergence test; format: in vivo, Zea mays; conditions: for Plant response rating, Corn: 31 g ai/ha, scale 0 to 100 (0 no effect, 100 complete control)
# How it was run: as §1
# rice = experiment: Test C flooded paddy test; format: in vivo, Oryza sativa; conditions: Flood
# How it was run: as §3
# morningglory = experiment: Test C pre-/postemergence test; format: in vivo, Ipomoea coccinea; conditions: for Plant response rating, Morningglory: 31 g ai/ha, scale 0 to 100 (0 no effect, 100 complete control)
# How it was run: as §1
# giant foxtail = experiment: Test C pre-/postemergence test; format: in vivo, Setaria faberii; conditions: for Plant response rating, Foxtail, Giant: 31 g ai/ha, scale 0 to 100 (0 no effect, 100 complete control)
# How it was run: as §1
# velvetleaf [3] = experiment: Test A pre-/postemergence greenhouse test; format: in vivo, Abutilon theophrasti; conditions: for Velvetleaf plant response rating: 0 to 100 scale; for Plant response rating, Velvetleaf: 0 to 100 scale where 0 is no effect and 100 is complete control
# How it was run: as §2
# woolly cupgrass = experiment: Test C pre-/postemergence test; format: in vivo, Eriochloa villosa; conditions: for Plant response rating, Cupgrass, Woolly: 31 g ai/ha, scale 0 to 100 (0 no effect, 100 complete control)
# How it was run: as §1
# wheat [4] = experiment: Test A pre-/postemergence greenhouse test; format: in vivo, Triticum aestivum; conditions: for Wheat plant response rating: 0 to 100 scale; for Plant response rating, Wheat: 0 to 100 scale where 0 is no effect and 100 is complete control
# How it was run: as §2
# johnsongrass = experiment: Test C pre-/postemergence test; format: in vivo, Sorghum halepense; conditions: for Plant response rating, Johnsongrass: 31 g ai/ha, scale 0 to 100 (0 no effect, 100 complete control)
# How it was run: as §1
# [5] = 62 g ai/ha, Preemergence, scale 0 to 100
# [6] = 125 g ai/ha, preemergence, scale 0 (no effect) to 100 (complete control)
# [7] = preemergence, 250 g ai/ha, scale 0 (no effect) to 100 (complete control)
# [8] = Postemergence, 125 g ai/ha, 0 is no effect, 100 is complete control
# [9] = Postemergence, 500 g ai/ha, 0 is no effect, 100 is complete control
# [10] = Preemergence, 125 g ai/ha, 0 no effect, 100 complete control
# [11] = 31 g ai/ha, scale 0 to 100 (0 no effect, 100 complete control)
# [12] = 62 g ai/ha, scale 0 to 100, 0 no effect, 100 complete control, 13 to 15 days
# [13] = 125 g ai/ha, scale 0 to 100, 0 no effect, 100 complete control, 13 to 15 days
# [14] = 250 g ai/ha, scale 0 to 100, 0 no effect, 100 complete control, 13 to 15 days
# [15] = preemergence, 125 g ai/ha, scale 0 (no effect) to 100 (complete control)
# [16] = 250 g ai/ha, scale 0 to 100 (0 no effect, 100 complete control)
structure (smiles),measurement,setting,value
Cn1nc(C(F)(F)F)c(C(Cl)S(=O)(=O)c2cccc[n+]2[O-])c1OCC(F)(F)F (racemic) [Compound 36],"Oat, Wild plant response rating",wild oat; [5],30
same,"Oat, Wild plant response rating",wild oat; [6],40
same,"Plant response rating, Oat, Wild",wild oat; Preemergence,25
same,"Oat, Wild plant response rating",wild oat; [7],80
same,Pigweed plant response rating,redroot pigweed; [8],10
same,Pigweed plant response rating,redroot pigweed; [9],60
same,Pigweed plant response rating,redroot pigweed; [10],100
same,"Plant response rating, Pigweed","redroot pigweed; Preemergence, 500 g ai/ha",100
same,Wheat plant response rating,wheat [1]; [5],0
same,Wheat plant response rating,wheat [1]; [6],0
same,"Plant response rating, Wheat",wheat [1]; Preemergence,0
same,Wheat plant response rating,wheat [1]; [7],15
same,"Bromegrass, Downy plant response rating",downy brome; [5],0
same,"Bromegrass, Downy plant response rating",downy brome; [6],30
same,"Plant response rating, Bromegrass, Downy",downy brome; Preemergence,0
same,"Bromegrass, Downy plant response rating",downy brome; [7],50
same,Galium plant response rating,catchweed bedstraw; [5],0
same,Galium plant response rating,catchweed bedstraw; [6],100
same,"Plant response rating, Galium",catchweed bedstraw; Preemergence,0
same,Galium plant response rating,catchweed bedstraw; [7],100
same,"Nutsedge, Yellow plant response rating",yellow nutsedge; [5],50
same,"Nutsedge, Yellow plant response rating",yellow nutsedge; [6],100
same,"Plant response rating, Nutsedge, Yellow",yellow nutsedge; Preemergence,0
same,"Nutsedge, Yellow plant response rating",yellow nutsedge; [7],100
same,Nightshade plant response rating,eastern black nightshade; [5],70
same,Nightshade plant response rating,eastern black nightshade; [6],80
same,"Plant response rating, Nightshade",eastern black nightshade; Preemergence,70
same,Nightshade plant response rating,eastern black nightshade; [7],80
same,Velvetleaf plant response rating,velvetleaf [2]; [5],0
same,Velvetleaf plant response rating,velvetleaf [2]; [6],40
same,"Plant response rating, Velvetleaf",velvetleaf [2]; Preemergence,0
same,Velvetleaf plant response rating,velvetleaf [2]; [7],70
same,"Plant response rating, Ducksalad",duck salad; [11],85
same,"Plant response rating, Ducksalad",duck salad; [12],85
same,"Plant response rating, Ducksalad",duck salad; [13],90
same,"Plant response rating, Ducksalad",duck salad; [14],90
same,Corn plant response rating,corn; [5],40
same,Corn plant response rating,corn; [6],60
same,"Plant response rating, Corn",corn; Preemergence,0
same,Corn plant response rating,corn; [7],80
same,"Plant response rating, Rice",rice; [11],0
same,"Plant response rating, Rice",rice; [12],25
same,"Plant response rating, Rice",rice; [13],60
same,"Plant response rating, Rice",rice; [14],75
same,Morningglory plant response rating,morningglory; [5],10
same,Morningglory plant response rating,morningglory; [6],60
same,"Plant response rating, Morningglory",morningglory; Preemergence,0
same,Morningglory plant response rating,morningglory; [7],75
same,"Foxtail, Giant plant response rating",giant foxtail; [5],50
same,"Foxtail, Giant plant response rating",giant foxtail; [6],100
same,"Plant response rating, Foxtail, Giant",giant foxtail; Preemergence,30
same,"Foxtail, Giant plant response rating",giant foxtail; [7],100
same,Velvetleaf plant response rating,velvetleaf [3]; [8],0
same,Velvetleaf plant response rating,velvetleaf [3]; [9],40
same,Velvetleaf plant response rating,velvetleaf [3]; [10],40
same,"Plant response rating, Velvetleaf","velvetleaf [3]; Preemergence, 500 g ai/ha",70
same,"Cupgrass, Woolly plant response rating",woolly cupgrass; [5],55
same,"Cupgrass, Woolly plant response rating",woolly cupgrass; [6],100
same,"Plant response rating, Cupgrass, Woolly",woolly cupgrass; Preemergence,55
same,"Cupgrass, Woolly plant response rating",woolly cupgrass; [7],100
same,Wheat plant response rating,wheat [4]; [8],0
same,Wheat plant response rating,wheat [4]; [9],50
same,Wheat plant response rating,wheat [4]; [10],20
same,"Plant response rating, Wheat","wheat [4]; Preemergence, 500 g ai/ha",60
same,Johnsongrass plant response rating,johnsongrass; [5],80
same,Johnsongrass plant response rating,johnsongrass; [6],90
same,"Plant response rating, Johnsongrass",johnsongrass; Preemergence,60
same,Johnsongrass plant response rating,johnsongrass; [7],90
Cn1nc(C(F)(F)F)c(CS(=O)(=O)c2cc(C(C)(C)C)cc[n+]2[O-])c1OC(F)F [Compound 25],"Oat, Wild plant response rating",wild oat; [5],85
same,"Plant response rating, Oat, Wild",wild oat; Preemergence,0
same,Pigweed plant response rating,redroot pigweed; [8],30
same,Pigweed plant response rating,redroot pigweed; [9],40
same,Pigweed plant response rating,redroot pigweed; [10],100
same,"Plant response rating, Pigweed","redroot pigweed; Preemergence, 500 g ai/ha",100
same,Wheat plant response rating,wheat [1]; [5],20
same,"Plant response rating, Wheat",wheat [1]; Preemergence,0
same,"Bromegrass, Downy plant response rating",downy brome; [5],0
same,"Plant response rating, Bromegrass, Downy",downy brome; Preemergence,0
same,"Plant response rating (0 to 100), Bromegrass, Downy","downy brome; Preemergence, 250 g ai/ha",50
same,"Bromegrass, Downy plant response rating",downy brome; [15],0
same,Galium plant response rating,catchweed bedstraw; [5],98
same,"Plant response rating, Galium",catchweed bedstraw; Preemergence,70
same,"Plant response rating (0 to 100), Galium","catchweed bedstraw; Preemergence, 250 g ai/ha",100
same,"Nutsedge, Yellow plant response rating",yellow nutsedge; [5],80
same,"Plant response rating, Nutsedge, Yellow",yellow nutsedge; Preemergence,0
same,Nightshade plant response rating,eastern black nightshade; [5],100
same,"Plant response rating, Nightshade",eastern black nightshade; Preemergence,100
same,Velvetleaf plant response rating,velvetleaf [2]; [5],80
same,"Plant response rating, Velvetleaf",velvetleaf [2]; Preemergence,20
same,"Plant response rating, Ducksalad",duck salad; [11],0
same,"Plant response rating, Ducksalad",duck salad; [12],40
same,"Plant response rating, Ducksalad",duck salad; [13],60
same,"Plant response rating, Ducksalad",duck salad; [16],80
same,Corn plant response rating,corn; [5],20
same,"Plant response rating, Corn",corn; Preemergence,0
same,"Plant response rating (0 to 100), Corn","corn; Preemergence, 250 g ai/ha",60
same,Corn plant response rating,corn; [15],60
same,"Plant response rating, Rice",rice; [11],0
same,"Plant response rating, Rice",rice; [12],0
same,"Plant response rating, Rice",rice; [13],65
same,"Plant response rating, Rice",rice; [16],75
same,Morningglory plant response rating,morningglory; [5],50
same,"Plant response rating, Morningglory",morningglory; Preemergence,0
same,"Foxtail, Giant plant response rating",giant foxtail; [5],85
same,"Plant response rating, Foxtail, Giant",giant foxtail; Preemergence,40
same,Velvetleaf plant response rating,velvetleaf [3]; [8],30
same,Velvetleaf plant response rating,velvetleaf [3]; [9],50
same,Velvetleaf plant response rating,velvetleaf [3]; [10],60
same,"Plant response rating, Velvetleaf","velvetleaf [3]; Preemergence, 500 g ai/ha",100
same,"Cupgrass, Woolly plant response rating",woolly cupgrass; [5],60
same,"Plant response rating, Cupgrass, Woolly",woolly cupgrass; Preemergence,40
same,"Plant response rating (0 to 100), Cupgrass, Woolly","woolly cupgrass; Preemergence, 250 g ai/ha",100
same,Wheat plant response rating,wheat [4]; [8],0
same,Wheat plant response rating,wheat [4]; [9],40
same,Wheat plant response rating,wheat [4]; [10],40
same,"Plant response rating, Wheat","wheat [4]; Preemergence, 500 g ai/ha",60
same,Johnsongrass plant response rating,johnsongrass; [5],98
same,"Plant response rating, Johnsongrass",johnsongrass; Preemergence,70
same,"Plant response rating (0 to 100), Johnsongrass","johnsongrass; Preemergence, 250 g ai/ha",100
